In PubChem BioAssay AID1963865 (Molecular Pharmacology Branch, DTP, NCI, 2024):

Tested on: KRAS PDC multicell spheroid viability
Test: Anticancer human tumor 825966-067-R-J1-PDC patient-derived colon carcinoma cell line growth inhibition [KRAS2]
Details: for IC50: curve of first compound; for viability, T/C: stronger effect = lower value
How it was run: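 KRAS-mutant tumor cells were grown as spheroids with HUVEC endothelial cells and human MSCs as stroma. Targeted agents were tested alone and with KRAS pathway inhibitors. Doses started at or near clinical Cmax, or 10 microM, descending half-log.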

[1] = second compound 0.0316 µM, first compound 0.0316 µM
[2] = second compound 0.0316 µM, first compound 0.1 µM
[3] = second compound 0.0316 µM, first compound 0.316 µM
[4] = second compound 0.0316 µM, first compound 1 µM
[5] = second compound 0.0316 µM, first compound 3.16 µM
[6] = second compound 0.1 µM, first compound 0.0316 µM
[7] = second compound 0.1 µM, first compound 0.1 µM
[8] = second compound 0.1 µM, first compound 0.316 µM
[9] = second compound 0.1 µM, first compound 1 µM
[10] = second compound 0.1 µM, first compound 3.16 µM
[11] = second compound 0.316 µM, first compound 0.0316 µM
[12] = second compound 0.316 µM, first compound 0.1 µM
[13] = second compound 0.316 µM, first compound 0.316 µM
[14] = second compound 0.316 µM, first compound 1 µM
[15] = second compound 0.316 µM, first compound 3.16 µM
[16] = second compound 1 µM, first compound 0.0316 µM
[17] = second compound 1 µM, first compound 0.1 µM
[18] = second compound 1 µM, first compound 0.316 µM
[19] = second compound 1 µM, first compound 1 µM
[20] = second compound 1 µM, first compound 3.16 µM
[21] = second compound 3.16 µM, first compound 0.0316 µM
[22] = second compound 3.16 µM, first compound 0.1 µM
[23] = second compound 3.16 µM, first compound 0.316 µM
[24] = second compound 3.16 µM, first compound 1 µM
[25] = second compound 3.16 µM, first compound 3.16 µM
[26] = second compound 0.0316 µM, first compound 10 µM
[27] = second compound 0.1 µM, first compound 10 µM
[28] = second compound 0.316 µM, first compound 10 µM
[29] = second compound 1 µM, first compound 10 µM
[30] = second compound 3.16 µM, first compound 10 µM
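Note: spheroids exposed to compounds for 7 days.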
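Throughout, for viability, T/C: 100% = DMSO vehicle control viability.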

SMILES	IC50 (second compound 0.0316 µM)	IC50 (second compound 0.1 µM)	IC50 (second compound 0.316 µM)	IC50 (second compound 1 µM)	IC50 (second compound 3.16 µM)	viability, T/C [1]	viability, T/C [2]	viability, T/C [3]	viability, T/C [4]	viability, T/C [5]	viability, T/C [6]	viability, T/C [7]	viability, T/C [8]	viability, T/C [9]	viability, T/C [10]	viability, T/C [11]	viability, T/C [12]	viability, T/C [13]	viability, T/C [14]	viability, T/C [15]	further results
CC1COCCN1c1cc(-c2ccnn2C)c2ccnc(-c3ccn[nH]3)c2n1 (stereo not given) + C=CC(=O)N1CCN(c2nc(OCC3CCCN3C)nc3c2CCN(c2cccc4cccc(C)c24)C3)CC1CC#N	> 3.16 µM	> 3.16 µM	0.208 µM	0.0895 µM	0.0145 µM	102%	69.1%	56.7%	73.8%	46.4%	114%	63.6%	46.8%	70.6%	49.5%	119%	65%	41.6%	61.1%	21.7%	viability, T/C (second compound 0.0316 µM, first compound 0.01 µM): 118%; viability, T/C (second compound 0.1 µM, first compound 0.01 µM): 101%; viability, T/C (second compound 0.316 µM, first compound 0.01 µM): 94.5%; viability, T/C (second compound 1 µM, first compound 0.01 µM): 120%; viability, T/C [16]: 123%; viability, T/C [17]: 39.6%; viability, T/C [18]: 56.3%; viability, T/C [19]: 39.3%; viability, T/C [20]: 34.4%; viability, T/C (second compound 3.16 µM, first compound 0.01 µM): 64.1%; viability, T/C [21]: 20.2%; viability, T/C [22]: 23.1%; viability, T/C [23]: 9.83%; viability, T/C [24]: 15.4%; viability, T/C [25]: 25.3%
CC1OCC2(CCN(c3cnc(Sc4ccnc(N)c4Cl)c(N)n3)CC2)C1N (stereo not given) + C=CC(=O)N1CCN(c2nc(OCC3CCCN3C)nc3c2CCN(c2cccc4cccc(C)c24)C3)CC1CC#N	8.77 µM	8.78 µM	6.86 µM	7.18 µM	5.79 µM	105%	97%	92.5%	82.3%	106%	84.6%	75%	114%	83.5%	89.9%	94.5%	83.5%	90.4%	107%	115%	viability, T/C [26]: 44%; viability, T/C [27]: 44.9%; viability, T/C [28]: 26.4%; viability, T/C [16]: 87.2%; viability, T/C [17]: 105%; viability, T/C [18]: 97.7%; viability, T/C [19]: 97.3%; viability, T/C [20]: 121%; viability, T/C [29]: 29.1%; viability, T/C [21]: 81.4%; viability, T/C [22]: 116%; viability, T/C [23]: 102%; viability, T/C [24]: 110%; viability, T/C [25]: 99%; viability, T/C [30]: 5.73%
CCNC(=O)CC1N=C(c2ccc(Cl)cc2)c2cc(OC)ccc2-n2c(C)nnc21 (stereo not given) + C=CC(=O)N1CCN(c2nc(OCC3CCCN3C)nc3c2CCN(c2cccc4cccc(C)c24)C3)CC1CC#N	> 10 µM	> 10 µM	> 10 µM	> 10 µM	0.725 µM	80.1%	112%	118%	115%	82.2%	79.5%	112%	113%	89.5%	79.4%	90%	119%	121%	118%	69.7%	viability, T/C [26]: 75.9%; viability, T/C [27]: 75.9%; viability, T/C [28]: 72.4%; viability, T/C [16]: 91.8%; viability, T/C [17]: 110%; viability, T/C [18]: 126%; viability, T/C [19]: 85.8%; viability, T/C [20]: 44.4%; viability, T/C [29]: 59.5%; viability, T/C [21]: 109%; viability, T/C [22]: 125%; viability, T/C [23]: 87.6%; viability, T/C [24]: 20.3%; viability, T/C [25]: 55.5%; viability, T/C [30]: 30.7%
